One series relates to rgRSV224 virus. Description: microbe, parasite or virus in culture. It is filed as cell-based, respiratory syncytial virus (RSV). The following applies: human respiratory syncytial virus, HeLa, 72 h, read-out: WT activity EC50. The method, then: (§1) Black 96-well clear-bottom microtiter plates (Corning, Amsterdam, The Netherlands) were filled in duplicate using a customized robot system with serial 4-fold dilutions of compound in a final volume of 50 μl culture medium [RPMI medium without phenol red, 10% FBS, 0.04% gentamycin (50 mg/mL) and 0.5% DMSO]. Then, 100 μl of a HeLa cell suspension (5×10^4 cells/mL) in culture medium was added to each well followed by the addition of 50 μl rgRSV224 (MOI=0.02) virus in culture medium using a multidrop dispenser (Thermo Scientific, Erembodegem, Belgium). rgRSV224 virus is an engineered virus that includes an additional GFP gene (Hallak et al, 2000) and was in-licensed from the NIH (Bethesda, Md., USA). Medium, virus- and mock-infected controls were included in each test. Cells were incubated at 37° C. in a 5% CO2 atmosphere. Three days post-virus exposure, viral replication was quantified by measuring GFP expression in the cells by a MSM laser microscope (Tibotec, Beerse, Belgium). The EC50 was defined as the 50% inhibitory concentration for GFP expression. In parallel, compounds were incubated for three days in a set of white 96-well microtitier plates (Corning) and the cytotoxicity of compounds in HeLa cells was determined by measuring the ATP content of the cells using the ATPlite kit (PerkinElmer, Zaventem, Belgium) according to the manufacturer's instructions. The CC50 was defined as the 50% concentration for cytotoxicity.

A short description of series [1]: Cytotoxicity in HeLa cells, ATP content (ATPlite kit). It is filed as cell-based. The following applies: human, Table 1, three days incubation, read-out: Toxicity CC50. The method, then:
as §1
A general note: ATP-based viability assays read luminescence as a measure of living cells.

In general, EC50 refers to the concentration giving half of the maximal effect. The term CC50 denotes the concentration giving 50% cytotoxicity.

As to `O=c1n(Cc2cc3nc(Cl)ccc3n2CCCCO)c2cnccc2n1C1CC1` [Compound P2, 3-{[5-Chloro-1-(4-hydroxybutyl)-1H-pyrrolo[3,2-b]pyridin-2-yl]methyl}-1-cyclopropyl-1,3-dihydro-2H-imidazo[4,5-c]pyridin-2-one], in the series with rgRSV224 virus, the EC50 was found to be 0.0156 µM. In addition, the CC50 at 3 days in series [1] is > 9.84 µM.

For `CC(C)CCn1c(Cn2c(=O)n(C3CC3)c3ccncc32)cc2ncccc21` [Compound P3, 1-Cyclopropyl-3-{[1-(3-methylbutyl)-1H-pyrrolo[3,2-b]pyridin-2-yl]methyl}-1,3-dihydro-2H-imidazo[4,5-c]pyridin-2-one], the EC50 in the series on rgRSV224 virus stood at 0.0629 µM. The CC50 at 3 days in series [1] worked out at 68 µM.

With `O=c1n(Cc2cc3ccncc3n2CCCCO)c2cnccc2n1C1CC1` [Compound P4, 1-Cyclopropyl-3-{[1-(4-hydroxybutyl)-1H-pyrrolo[2,3-c]pyridin-2-yl]methyl}-1,3-dihydro-2H-imidazo[4,5-c]pyridin-2-one], the EC50 with rgRSV224 virus came out at 0.129 µM. Further, in series [1], the CC50 at 3 days was > 9.84 µM.

As for `O=c1n(Cc2cc3ncccc3n2CCCCO)c2cnccc2n1C1CC1` [Compound P5, 1-Cyclopropyl-3-{[1-(4-hydroxybutyl)-1H-pyrrolo[3,2-b]pyridin-2-yl]methyl}-1,3-dihydro-2H-imidazo[4,5-c]pyridin-2-one], the EC50 in the series on rgRSV224 virus is 0.16 µM. For the same compound, in series [1], the CC50 at 3 days is > 98.4 µM.

Consider `COc1ccc2c(cc(Cn3c(=O)n(C4CC4)c4ccncc43)n2CCCCO)n1` [Compound P6, 1-Cyclopropyl-3-{[1-(4-hydroxybutyl)-5-methoxy-1H-pyrrolo[3,2-b]pyridin-2-yl]methyl}-1,3-dihydro-2H-imidazo[4,5-c]pyridin-2-one], for which the EC50 with rgRSV224 virus was 0.22 µM. In addition, in series [1], the CC50 at 3 days is > 9.84 µM.

Consider `O=c1n(Cc2cc3nc(O)ccc3n2CCCCO)c2cnccc2n1C1CC1` [Compound P8, 1-Cyclopropyl-3-{[5-hydroxy-1-(4-hydroxybutyl)-1H-pyrrolo[3,2-b]pyridin-2-yl]methyl}-1,3-dihydro-2H-imidazo[4,5-c]pyridin-2-one], for which, in the series on rgRSV224 virus, the EC50 was determined as 8.46 µM. For the same compound, in series [1], the CC50 at 3 days is > 9.84 µM.

As to `CC(C)(C)C(=O)OCCCCn1c(Cn2c(=O)n(C3CC3)c3ccncc32)cc2nc(O)ccc21` [Compound P9, 4-{2-[(1-Cyclopropyl-2-oxo-1,2-dihydro-3H-imidazo[4,5-c]pyridin-3-yl)methyl]-5-hydroxy-1H-pyrrolo[3,2-b]pyridin-1-yl}butyl 2,2-dimethylpropanoate], in the series with rgRSV224 virus, the EC50 was > 9.84 µM. Further, in series [1], the CC50 at 3 days is > 9.84 µM.

For the compound `CC(C)CCn1c(Cn2c(=O)n(C3CC3)c3ccncc32)cc2cccnc21` [Compound P10, 1-Cyclopropyl-3-{[1-(3-methylbutyl)-1H-pyrrolo[2,3-b]pyridin-2-yl]methyl}-1,3-dihydro-2H-imidazo[4,5-c]pyridin-2-one], the EC50 in the series on rgRSV224 virus was > 98.4 µM. The half-maximal cytotoxic concentration (CC50) at 3 days in series [1] is > 98.4 µM.
